{
  "source": "patent US6177475A",
  "about": "“Methods of using integrin modulators for treatment of inflammation” (priority 1997, dated 2001)",
  "key": {"GP IIb/IIIa": {"test_system": "GP IIb/IIIa", "conditions": "cited from earlier work"}, "51Cr-labeled monocytes": {"test_system": "51Cr-labeled monocytes", "test": "Monocyte recruitment to inflamed skin", "type": "in vivo, rat", "conditions": "50 mg/kg i.v.; for Accumulation of 51Cr-labeled Monocytes (mean ± SEM): 2 h", "from_the_text": "(§1) Chemotactic factors (e.g., C5adesArg) and cytokines, such as tumor necrosis factor α (TNF) or interferon gamma (IFN), induce rapid cutaneous inflammatory reactions, when injected intradermally. These inflammatory reactions are characterized by integrin-mediated migration of ^51 Cr-labeled monocytes and ^111 In-labeled neutrophils. The mechanisms of leukocyte recruitment to the inflammatory loci differ, however, in that chemotactic factors act primarily on leukocytes (by upregulating integrins), whereas TNF and IFN activate endothelial cells (which results, inter alia, in rapid expression of integrin ligands, such as ICAM-1 and VCAM-1).\n(§2) Agents used for the induction of the inflammation included rat IFN, recombinant mouse TNF (Genentech, South San Francisco, Calif.), and Zymozan-activated serum (ZAS). ZAS, a source of C5adesArg, was generated by activating complement in normal rat serum with 5 mg/ml of Zymozan A (Sigma Chemical Company, St. Louis, Mo.) at 37° C. for 60 min, after which the zymozan was removed.\n(§3) Rat monocytes and neutrophils were isolated and labeled as described in Example 6, supra. Male Lewis rats were administered intravenously with 50 mg/kg Ajoene (treatment group) or its vehicle (control), followed within 2-3 min by infusion of the labeled cells. Immediately afterwards, the skin on the back of all animals was shaved and the inflammatory stimuli and the diluent control were injected intradermally at several sites of the skin of each animal. Two hours later, 1 ml of blood was taken from each rat, and the animals were sacrificed. The dorsal skin, including the area of dermal inflammatory reactions, was removed and frozen, and the injected skin sites were punched out with a 12-mm punch and counted in a gamma spectrometer (model 1280, LXB Instruments)."}, "[1]": {"test_system": "111In-labeled neutrophils", "test": "Neutrophil recruitment to inflamed skin", "type": "in vivo, rat", "conditions": "50 mg/kg i.v.; for Accumulation of 111In-labeled Neutrophils (mean ± SEM): 2 h", "from_the_text": "as §1, §2, §3"}, "melanoma B16 cells": {"test_system": "melanoma B16 cells", "test": "Experimental metastasis, lung colonization by melanoma B16 cells", "type": "in vivo, C57BL/6 mice", "conditions": "B16 cells pretreated 30 min; 200 micromoles per liter; 3 weeks", "experimental": "A suspension of 10^5 melanoma B16 cells was pretreated for 30 min with Ajoene, and the suspension (including Ajoene) was injected intravenously into male C57BL/6 mice. The mice were sacrificed 3 weeks post-injection, and their lungs subjected to microscopic examination."}, "[2]": {"test_system": "VLA-4 (Jurkat cells, VCAM-1)", "test": "VLA-4-dependent adhesion of Jurkat cells to VCAM-1", "type": "cell-based", "conditions": "Homo sapiens, 1 h, 37° C.", "experimental": "Microtiter plates were coated with ligands of the integrin VLA-4, i.e., recombinant human VCAM-1 (500 nanograms per well) or the fragment of connective segment of human fibronectin (CS-1), covalently attached to ovalbumin (5 micrograms per well) by overnight incubation (4° C.) with solutions of the proteins in phosphate-buffered saline (PBS). The plates were blocked with 1% bovine serum albumin (BSA) in Hanks' buffered salt solution (HBSS-BSA). The cells (Jurkat or human melanoma MV3) were labeled with the fluorescent dye 5-chloromethylfluorescein diacetate (CMFDA) and introduced into the wells of the plates (10^5 cells per well) together with varying amounts of Ajoene. After incubation at 37° C. for 1 h, the unbound cells were removed by aspiration and the wells washed four times with HBSS-BSA. Thereafter, the bound cells were lysed with 0.5% Triton X-100, and the fluorescence was measured using a Cytofluor 2300 plate reader. The number of adherent cells was calculated from a standard dilution curve of Triton X-100 lysates of the CMFDA-labeled cells."}, "[3]": {"test_system": "MOLT-4 cells and syncytiotrophoblasts", "type": "cell-based, human", "experimental": "MOLT-4 clone 8 cells were labeled with calcein-AM, pretreated with different concentrations of Ajoene (0-200 micromoles per liter) and incubated with cultured term syncytiotrophoblast cells at 37° C. for one hour in the presence of Ajoene. Adhesion was measured directly as fluorescence units after background correction. Controls included measuring adhesion in the presence of the appropriate carrier solvent.\nIn order to assess the ability of Ajoene to inhibit lymphocyte-mediated HIV infection of syncytiotrophoblasts, HIV-1LBi -infected MOLT-4 cells were added to adherent cultures of uninfected syncytiotrophoblasts in the presence and absence of Ajoene. Various additional control conditions were also established. First, some wells received filtered (0.45 micrometer) supernatant of cell-free HIV from infected cell cultures. Yet other negative controls included syncytiotrophoblasts cultured alone and syncytiotrophoblasts cultured with uninfected MOLT-4 cells. After 24 hours, the cocultures were washed to removed unbound lymphocytes, fixed, permeabilized, stained for viral core antigens (p24 and p55), and viewed under a fluorescence microscope."}},
  "data": [
    {"smiles": "C=CCSSC=CC[S+]([O-])CC=C", "note": "(stereo not shown) [Ajoene, 4,5,9-trithiadodeca-1,6,11-triene-9-oxide]", "values": [
      {"measurement": "inhibition of platelet aggregation by inactivation of GP IIb/IIIa", "setting": "GP IIb/IIIa; Apitz-Castro et al., 1986", "value": "inhibit platelet aggregation by inactivating allosterically the platelet integrin, GP IIb/IIIa"},
      {"measurement": "reversibility of integrin inhibition", "setting": "GP IIb/IIIa", "value": "reversible"},
      {"measurement": "Accumulation of 51Cr-labeled Monocytes (mean ± SEM)", "setting": "51Cr-labeled monocytes; 10 ng TNF, P < 0.002", "value": "1,274 cpm per inflammatory locus"},
      {"measurement": "inhibition of monocyte migration to loci of acute cutaneous inflammation", "setting": "51Cr-labeled monocytes", "value": "50-75%"},
      {"measurement": "Accumulation of 51Cr-labeled Monocytes (mean ± SEM)", "setting": "51Cr-labeled monocytes; 25% ZAS, P < 0.020", "value": "944 cpm per inflammatory locus"},
      {"measurement": "Accumulation of 51Cr-labeled Monocytes (mean ± SEM)", "setting": "51Cr-labeled monocytes; 50% ZAS, P < 0.002", "value": "1,268 cpm per inflammatory locus"},
      {"measurement": "Accumulation of 51Cr-labeled Monocytes (mean ± SEM)", "setting": "51Cr-labeled monocytes; 300 U IFN, P < 0.001", "value": "468 cpm per inflammatory locus"},
      {"measurement": "Accumulation of 51Cr-labeled Monocytes (mean ± SEM)", "setting": "51Cr-labeled monocytes; diluent control stimulus, N.S.", "value": "15 cpm per inflammatory locus"},
      {"measurement": "Accumulation of 111In-labeled Neutrophils (mean ± SEM)", "setting": "[1]; 10 ng TNF, P < 0.006", "value": "1,289 cpm per inflammatory locus"},
      {"measurement": "inhibition of neutrophil migration to loci of acute cutaneous inflammation", "setting": "[1]", "value": "30-40%"},
      {"measurement": "Accumulation of 111In-labeled Neutrophils (mean ± SEM)", "setting": "[1]; 25% ZAS, P < 0.001", "value": "5,558 cpm per inflammatory locus"},
      {"measurement": "Accumulation of 111In-labeled Neutrophils (mean ± SEM)", "setting": "[1]; 50% ZAS, P < 0.001", "value": "7,926 cpm per inflammatory locus"},
      {"measurement": "Accumulation of 111In-labeled Neutrophils (mean ± SEM)", "setting": "[1]; 300 U IFN, P < 0.060", "value": "160 cpm per inflammatory locus"},
      {"measurement": "Accumulation of 111In-labeled Neutrophils (mean ± SEM)", "setting": "[1]; diluent control stimulus, N.S.", "value": "53 cpm per inflammatory locus"},
      {"measurement": "prevention of lung colonization", "setting": "melanoma B16 cells", "value": "prevented lung colonization"},
      {"measurement": "IC50", "setting": "[2]", "value": 250, "unit": "µM"},
      {"measurement": "toxic effects to the cells", "setting": "[3]; HIV infection assay (lymphocyte-mediated), 200 micromoles per liter", "value": "without toxic effects to the cells"},
      {"measurement": "toxic effects on cells", "setting": "[3]; adhesion assay, up to 200 micromoles per liter", "value": "Without any toxic effects on cells"},
      {"measurement": "toxic effects in cell-free HIV infection", "setting": "[3]; cell-free HIV, 200 micromoles per liter and lower concentrations tested", "value": "without toxic effects"}
    ]}
  ]
}
